Data as given in US8357707B2, “2-carboxamide cycloamino ureas” (Novartis AG, priority 2009, dated 2013).

Assays:
Type in all cases: biochemical
PI3Kα = molecular target: T1, PI3Kα (Homo sapiens, UniProt P42336); assay: PI3K KinaseGlo assay, PI3Kalpha; conditions: 10 nM enzyme, 1 μM ATP, 30 mins
T1 construct: His tag (C); made in house; host or cells: Tn5 insect cells, baculovirus BV-1075

PI3Kβ = molecular target: T2, PI3Kβ (Homo sapiens, UniProt P42338); assay: PI3K KinaseGlo assay, PI3Kbeta; conditions: 25 nM enzyme, 1 μM ATP, 30 mins
T2 construct: His tag (C); made in house; host or cells: Tn5 insect cells, baculovirus BV949 (vector LR280)

PI3Kγ = molecular target: T3, PI3Kγ (Homo sapiens, UniProt P48736, Q459R); assay: PI3K KinaseGlo assay, PI3Kgamma; conditions: 150 nM enzyme, 1 μM ATP, 90 mins
T3 construct: Constructs lacking the N-terminal 144 aa; His tag (C); made in house; host or cells: Tn5 insect cells, baculovirus BV950; construct from the Roger Williams lab (MRC LMB)

PI3Kδ = molecular target: T4, PI3Kδ (Homo sapiens, UniProt O00329); assay: PI3K KinaseGlo assay, PI3Kdelta; conditions: 10 nM enzyme, 1 μM ATP, 30 mins
T4 construct: His tag (C); made in house; host or cells: Tn5 insect cells, baculovirus BV1060 (vector LR415)
T4 sequence (O00329 with tags, fused parts or gaps): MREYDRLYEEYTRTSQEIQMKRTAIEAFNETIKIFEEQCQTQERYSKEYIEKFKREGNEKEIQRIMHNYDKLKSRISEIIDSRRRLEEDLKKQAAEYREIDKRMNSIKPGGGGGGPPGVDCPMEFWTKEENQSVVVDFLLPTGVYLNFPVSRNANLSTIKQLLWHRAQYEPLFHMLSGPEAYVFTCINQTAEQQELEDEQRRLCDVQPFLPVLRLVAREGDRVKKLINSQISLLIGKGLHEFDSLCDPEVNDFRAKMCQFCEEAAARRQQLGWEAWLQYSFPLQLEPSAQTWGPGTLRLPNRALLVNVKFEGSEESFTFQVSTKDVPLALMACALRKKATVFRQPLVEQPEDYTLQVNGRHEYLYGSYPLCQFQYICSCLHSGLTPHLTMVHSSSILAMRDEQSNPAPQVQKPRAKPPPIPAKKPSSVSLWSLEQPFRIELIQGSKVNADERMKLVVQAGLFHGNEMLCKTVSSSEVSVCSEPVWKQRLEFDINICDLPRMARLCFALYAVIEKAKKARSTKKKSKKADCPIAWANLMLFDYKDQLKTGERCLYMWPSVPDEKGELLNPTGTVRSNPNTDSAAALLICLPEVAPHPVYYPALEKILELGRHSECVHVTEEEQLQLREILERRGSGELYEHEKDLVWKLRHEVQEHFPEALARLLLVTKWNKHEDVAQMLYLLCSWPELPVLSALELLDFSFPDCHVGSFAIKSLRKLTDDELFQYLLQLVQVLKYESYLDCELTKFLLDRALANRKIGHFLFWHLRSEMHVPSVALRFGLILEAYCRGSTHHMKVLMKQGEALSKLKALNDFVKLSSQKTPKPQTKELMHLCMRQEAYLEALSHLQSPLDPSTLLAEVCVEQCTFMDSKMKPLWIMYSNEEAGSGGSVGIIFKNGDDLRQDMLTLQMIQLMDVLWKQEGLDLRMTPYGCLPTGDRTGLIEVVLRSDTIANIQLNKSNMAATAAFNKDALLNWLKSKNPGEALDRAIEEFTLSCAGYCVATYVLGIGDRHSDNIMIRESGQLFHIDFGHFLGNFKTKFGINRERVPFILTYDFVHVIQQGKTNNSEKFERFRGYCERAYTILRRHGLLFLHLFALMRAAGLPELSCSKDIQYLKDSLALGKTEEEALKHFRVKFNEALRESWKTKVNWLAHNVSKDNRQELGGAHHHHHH

T2 sequence (P42338 with tags, fused parts or gaps): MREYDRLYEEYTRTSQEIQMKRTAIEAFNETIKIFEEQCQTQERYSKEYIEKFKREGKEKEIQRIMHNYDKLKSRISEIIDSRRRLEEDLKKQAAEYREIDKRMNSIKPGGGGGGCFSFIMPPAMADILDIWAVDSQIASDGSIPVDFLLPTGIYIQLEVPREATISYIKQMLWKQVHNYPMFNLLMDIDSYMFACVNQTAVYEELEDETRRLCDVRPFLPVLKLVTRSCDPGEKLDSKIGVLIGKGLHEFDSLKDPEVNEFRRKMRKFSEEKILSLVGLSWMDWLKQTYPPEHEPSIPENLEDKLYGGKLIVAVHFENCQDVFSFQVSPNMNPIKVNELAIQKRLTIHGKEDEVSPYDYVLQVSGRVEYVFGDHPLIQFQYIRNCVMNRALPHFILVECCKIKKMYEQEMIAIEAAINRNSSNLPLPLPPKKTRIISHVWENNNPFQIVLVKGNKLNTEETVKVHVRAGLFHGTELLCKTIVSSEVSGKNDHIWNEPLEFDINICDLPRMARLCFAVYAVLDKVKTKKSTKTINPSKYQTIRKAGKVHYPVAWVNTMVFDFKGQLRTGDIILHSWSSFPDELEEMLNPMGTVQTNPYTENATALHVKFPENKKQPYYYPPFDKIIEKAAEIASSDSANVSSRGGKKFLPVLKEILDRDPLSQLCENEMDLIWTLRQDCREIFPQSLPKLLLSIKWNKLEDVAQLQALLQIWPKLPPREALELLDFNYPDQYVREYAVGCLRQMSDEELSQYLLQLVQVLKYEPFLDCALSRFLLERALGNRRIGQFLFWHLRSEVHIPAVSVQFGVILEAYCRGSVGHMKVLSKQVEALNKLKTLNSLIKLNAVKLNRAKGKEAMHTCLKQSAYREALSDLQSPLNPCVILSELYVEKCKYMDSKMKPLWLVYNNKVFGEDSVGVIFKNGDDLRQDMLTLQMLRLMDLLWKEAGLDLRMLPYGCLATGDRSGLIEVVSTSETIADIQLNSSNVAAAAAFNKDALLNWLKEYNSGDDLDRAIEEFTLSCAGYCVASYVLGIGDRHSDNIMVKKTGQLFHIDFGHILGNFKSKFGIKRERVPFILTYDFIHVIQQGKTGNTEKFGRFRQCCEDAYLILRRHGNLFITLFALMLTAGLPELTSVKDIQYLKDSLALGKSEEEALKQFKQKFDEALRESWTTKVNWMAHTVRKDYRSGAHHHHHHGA
T1 sequence (P42336 with tags, fused parts or gaps): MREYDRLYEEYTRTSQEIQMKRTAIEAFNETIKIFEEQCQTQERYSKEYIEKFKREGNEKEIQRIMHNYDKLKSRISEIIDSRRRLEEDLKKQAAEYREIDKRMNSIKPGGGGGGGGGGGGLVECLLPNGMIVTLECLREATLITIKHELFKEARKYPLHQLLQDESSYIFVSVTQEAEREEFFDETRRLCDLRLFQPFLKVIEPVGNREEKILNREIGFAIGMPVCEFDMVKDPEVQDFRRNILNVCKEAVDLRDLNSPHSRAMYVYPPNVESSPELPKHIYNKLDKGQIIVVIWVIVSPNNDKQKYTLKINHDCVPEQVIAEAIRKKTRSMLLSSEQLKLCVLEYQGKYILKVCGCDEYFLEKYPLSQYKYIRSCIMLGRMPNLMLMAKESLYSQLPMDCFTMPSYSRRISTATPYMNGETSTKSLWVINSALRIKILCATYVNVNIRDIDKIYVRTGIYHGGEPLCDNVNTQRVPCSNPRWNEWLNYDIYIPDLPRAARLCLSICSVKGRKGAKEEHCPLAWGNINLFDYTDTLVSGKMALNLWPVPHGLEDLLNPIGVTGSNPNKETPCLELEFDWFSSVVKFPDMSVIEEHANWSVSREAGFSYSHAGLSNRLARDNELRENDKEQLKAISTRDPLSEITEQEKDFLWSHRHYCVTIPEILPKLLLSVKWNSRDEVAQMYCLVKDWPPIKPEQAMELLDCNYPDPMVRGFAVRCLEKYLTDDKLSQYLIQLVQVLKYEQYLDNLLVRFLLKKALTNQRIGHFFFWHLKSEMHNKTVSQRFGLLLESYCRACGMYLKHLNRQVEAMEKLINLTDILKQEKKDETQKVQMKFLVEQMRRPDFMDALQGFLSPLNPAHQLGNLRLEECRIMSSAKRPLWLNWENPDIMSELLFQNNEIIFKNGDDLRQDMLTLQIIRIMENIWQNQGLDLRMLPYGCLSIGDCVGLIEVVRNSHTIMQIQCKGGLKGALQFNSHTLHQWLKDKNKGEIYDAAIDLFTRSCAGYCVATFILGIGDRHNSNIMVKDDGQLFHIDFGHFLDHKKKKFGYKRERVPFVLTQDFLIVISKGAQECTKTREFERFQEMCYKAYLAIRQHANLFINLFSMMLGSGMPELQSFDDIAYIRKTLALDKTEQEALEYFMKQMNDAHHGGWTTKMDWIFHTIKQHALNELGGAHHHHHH
T3 sequence (P48736 with tags, fused parts or gaps Q459R): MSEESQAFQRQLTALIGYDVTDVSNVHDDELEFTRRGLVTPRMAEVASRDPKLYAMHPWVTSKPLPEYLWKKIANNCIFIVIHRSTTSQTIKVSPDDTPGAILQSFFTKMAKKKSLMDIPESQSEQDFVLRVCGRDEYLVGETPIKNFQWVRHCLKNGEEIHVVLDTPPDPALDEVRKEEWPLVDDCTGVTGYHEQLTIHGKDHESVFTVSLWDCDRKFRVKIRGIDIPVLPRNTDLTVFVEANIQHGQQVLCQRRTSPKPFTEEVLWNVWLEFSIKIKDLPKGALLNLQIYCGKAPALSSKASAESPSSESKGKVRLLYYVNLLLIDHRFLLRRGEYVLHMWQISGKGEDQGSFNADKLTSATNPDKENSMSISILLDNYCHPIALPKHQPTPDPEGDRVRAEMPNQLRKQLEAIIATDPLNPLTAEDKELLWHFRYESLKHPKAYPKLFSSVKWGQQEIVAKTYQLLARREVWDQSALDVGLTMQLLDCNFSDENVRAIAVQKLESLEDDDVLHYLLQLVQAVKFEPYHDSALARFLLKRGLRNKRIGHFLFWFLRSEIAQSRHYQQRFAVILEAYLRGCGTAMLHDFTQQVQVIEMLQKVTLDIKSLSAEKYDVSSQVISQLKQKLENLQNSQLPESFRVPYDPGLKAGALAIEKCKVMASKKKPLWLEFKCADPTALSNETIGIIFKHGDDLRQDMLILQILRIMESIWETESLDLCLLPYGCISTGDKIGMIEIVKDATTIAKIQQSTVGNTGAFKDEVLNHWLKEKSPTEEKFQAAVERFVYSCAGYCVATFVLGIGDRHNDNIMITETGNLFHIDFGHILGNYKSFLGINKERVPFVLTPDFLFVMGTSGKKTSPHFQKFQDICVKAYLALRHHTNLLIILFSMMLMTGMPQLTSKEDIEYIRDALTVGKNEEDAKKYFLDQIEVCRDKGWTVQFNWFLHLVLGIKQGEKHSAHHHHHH

`CCN(CC)c1ncc2c(n1)-c1sc(NC(=O)N3CC[C@@H]4C[C@@]43C(N)=O)nc1CC2` [Example 19, (1S,5R)-2-Aza-bicyclo[3.1.0]hexane-1,2-dicarboxylic acid 1-amide 2-[(8-diethylamino-4,5-dihydro-thiazolo[4,5-h]quinazolin-2-yl)-amide]] gave an IC50 (PI3Kα) of 0.0055 µM, an IC50 (PI3Kβ) of 0.588 µM and an IC50 (PI3Kγ) of 0.123 µM. For the same compound, the IC50 (PI3Kδ) was 0.077 µM.

`CCN(CC)c1ncc2c(n1)-c1sc(NC(=O)N3CC[C@H](C)[C@H]3C(N)=O)nc1CC2` [Example 2, (2S,3S)-3-Methyl-pyrrolidine-1,2-dicarboxylic acid 2-amide 1-[(8-diethylamino-4,5-dihydro-thiazolo[4,5-h]quinazolin-2-yl)-amide]] showed an IC50 (PI3Kα) of 0.0055 µM, an IC50 (PI3Kβ) of 0.332 µM and an IC50 (PI3Kγ) of 0.09 µM. It also gave an IC50 (PI3Kδ) of 0.03 µM.

In the case of `CCN(CC)c1ncc2c(n1)-c1sc(NC(=O)N3CC[C@@H](C)[C@H]3C(N)=O)nc1CC2` [Example 21, (2S,3R)-3-Methyl-pyrrolidine-1,2-dicarboxylic acid 2-amide 1-[(8-diethylamino-4,5-dihydro-thiazolo[4,5-h]quinazolin-2-yl)-amide]], the IC50 (PI3Kα) is reported as < 0.003 µM, the IC50 (PI3Kβ) is reported as 0.519 µM and the IC50 (PI3Kγ) is reported as 0.237 µM. The IC50 (PI3Kδ) was 0.036 µM.

For `CCN(CC)c1ncc2c(n1)-c1sc(NC(=O)N3C[C@@H](O)C[C@H]3C(N)=O)nc1CC2` [Example 26, (2S,4S)-4-Hydroxy-pyrrolidine-1,2-dicarboxylic acid 2-amide 1-[(8-diethylamino-4,5-dihydro-thiazolo[4,5-h]quinazolin-2-yl)-amide]], the IC50 (PI3Kα) was 0.0065 µM, the IC50 (PI3Kβ) was 0.328 µM and the IC50 (PI3Kγ) was 0.138 µM. The IC50 (PI3Kδ) was 0.058 µM.

In the case of `CCN(CC)c1ncc2c(n1)-c1sc(NC(=O)N3CCC[C@@]3(COC)C(N)=O)nc1CC2` [Example 5, (R)-2-Methoxymethyl-pyrrolidine-1,2-dicarboxylic acid 2-amide 1-[(8-diethylamino-4,5-dihydro-thiazolo[4,5-h]quinazolin-2-yl)-amide]], the IC50 (PI3Kα) is reported as 0.0055 µM, the IC50 (PI3Kβ) is reported as 0.047 µM and the IC50 (PI3Kγ) is reported as 0.153 µM. It also gave an IC50 (PI3Kδ) of 0.046 µM.

Work on `CCN(CC)c1ncc2c(n1)-c1sc(NC(=O)N3CCC[C@@]3(CO)C(N)=O)nc1CC2` [Example 8, (R)-2-Hydroxymethyl-pyrrolidine-1,2-dicarboxylic acid 2-amide 1-[(8-diethylamino-4,5-dihydro-thiazolo[4,5-h]quinazolin-2-yl)-amide]] yielded an IC50 (PI3Kα) of 0.0095 µM, an IC50 (PI3Kβ) of 0.276 µM and an IC50 (PI3Kγ) of 0.18 µM. The IC50 (PI3Kδ) was 0.198 µM.

Compound `CC(C)(C)c1ncc2c(n1)-c1sc(NC(=O)N3CCC3C(N)=O)nc1CC2` (centres unmarked) [Example 24, Azetidine-1,2-dicarboxylic acid 2-amide 1-[(8-tert-butyl-4,5-dihydro-thiazolo[4,5-h]quinazolin-2-yl)-amide]] has an IC50 (PI3Kα) of 0.007 µM, an IC50 (PI3Kβ) of 0.135 µM and an IC50 (PI3Kγ) of 0.098 µM. It also gave an IC50 (PI3Kδ) of 0.024 µM.

`CC(C)(C)c1ncc2c(n1)-c1sc(NC(=O)N3CC[C@H]3C(N)=O)nc1CC2` [Example 25, (S)-Azetidine-1,2-dicarboxylic acid 2-amide 1-[(8-tert-butyl-4,5-dihydro-thiazolo[4,5-h]quinazolin-2-yl)-amide]] was tested, and the IC50 (PI3Kα) was 0.0055 µM, the IC50 (PI3Kβ) was 0.346 µM and the IC50 (PI3Kγ) was 0.122 µM. The IC50 (PI3Kδ) was 0.045 µM.
